Assay results: publication PMC11946789, “Two Amino Acid Substitutions Improve the Pharmacological Profile of the Snake Venom Peptide Mambalgin” (Toxins, 2025)
Read-outs that look alike come from different tables or passages of the source. Where no end group is shown, it is not given here.

Legend:
rASIC1b = conditions: literature, cited from earlier work
rASIC1a/3 = conditions: reported in literature; cited from earlier work
[1] = target: rat ASIC1a channel, homomeric (rat) (UniProt P55926)
[2] = target: rat ASIC1a channel, homomeric (rat) (UniProt P55926); remark: listed apart in the source
[3] = target: rat ASIC1b channel, homomeric (rat) (UniProt P55926)
rat ASIC1b channel, homomeric (rat), sequence (P55926 other isoform, or with tags, fused parts or gaps): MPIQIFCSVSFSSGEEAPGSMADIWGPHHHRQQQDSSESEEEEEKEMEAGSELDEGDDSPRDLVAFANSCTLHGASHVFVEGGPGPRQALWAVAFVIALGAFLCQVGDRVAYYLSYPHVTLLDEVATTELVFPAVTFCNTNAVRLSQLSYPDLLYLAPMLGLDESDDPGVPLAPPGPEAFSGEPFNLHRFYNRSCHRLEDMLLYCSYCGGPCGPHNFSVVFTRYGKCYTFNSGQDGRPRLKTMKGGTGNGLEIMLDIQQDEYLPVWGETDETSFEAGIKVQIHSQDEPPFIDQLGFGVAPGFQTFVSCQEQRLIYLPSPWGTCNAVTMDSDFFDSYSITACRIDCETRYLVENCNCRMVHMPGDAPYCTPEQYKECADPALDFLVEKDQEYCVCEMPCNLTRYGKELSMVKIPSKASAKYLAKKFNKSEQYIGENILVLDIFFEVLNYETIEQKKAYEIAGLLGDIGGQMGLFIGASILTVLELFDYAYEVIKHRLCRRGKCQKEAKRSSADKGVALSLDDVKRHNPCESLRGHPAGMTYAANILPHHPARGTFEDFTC

rat ASIC1a channel, homomeric (rat), sequence (P55926 whole entry): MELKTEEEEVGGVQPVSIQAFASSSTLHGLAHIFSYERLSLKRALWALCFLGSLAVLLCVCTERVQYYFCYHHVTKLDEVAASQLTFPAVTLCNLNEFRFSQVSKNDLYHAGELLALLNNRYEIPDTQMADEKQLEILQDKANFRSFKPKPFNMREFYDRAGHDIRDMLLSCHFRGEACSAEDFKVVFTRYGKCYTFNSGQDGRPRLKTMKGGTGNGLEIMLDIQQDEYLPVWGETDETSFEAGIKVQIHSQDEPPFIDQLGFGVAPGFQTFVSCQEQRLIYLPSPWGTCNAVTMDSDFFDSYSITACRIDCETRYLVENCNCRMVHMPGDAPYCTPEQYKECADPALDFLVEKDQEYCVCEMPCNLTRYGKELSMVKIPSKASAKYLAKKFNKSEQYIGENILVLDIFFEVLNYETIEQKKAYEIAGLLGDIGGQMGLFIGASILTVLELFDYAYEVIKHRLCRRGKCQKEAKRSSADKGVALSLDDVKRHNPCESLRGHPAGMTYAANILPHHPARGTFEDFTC

Substance	IC50 (rASIC1b; ref 21) [nM]	IC50 (rASIC1b; ref 27) [nM]	effect on rASIC1a/3 (rASIC1a/3)	IC50 of inhibition of pH 5.5-evoked currents of homomeric rASIC1a in Xenopus oocytes (TEVC; peptide applied for 30 s at pH 7.4) [1] [nM]	IC50 of inhibition of pH 6.7-evoked currents of homomeric rASIC1a in Xenopus oocytes (TEVC; peptide applied for 30 s at pH 7.4) [2] [nM]	IC50 of inhibition of pH 5.5-evoked currents of homomeric rASIC1b in Xenopus oocytes (TEVC; peptide applied for 30 s at pH 7.4) [3] [nM]
Mamb-1 (LKCYQHGKVVTCHRDMKFCYHNTGMPFRNLKLILQGCSSSCSETENNKCCSTDRCNK; ends and bridges not checked; cysteine pairing not given here; UniProt P0DKR6 22-78, looked up)	192	39	no effect	–	–	–
mambalgin (Mamb), wild-type peptide (from UniProt P0DKS3 1-57)	–	–	–	110	86	119
